Values of other authors, collected in patent publication US7803400B2, “Artificial low-density lipoprotein carriers for transport of substances across the blood-brain barrier” (Blanchette Rockefeller Neurosciences Institute, priority 2002, dated 2010).

Columns and labels:
PKCC = target: T1, PKCC (Homo sapiens, UniProt Q02156)
T1 sequence (Q02156 1-737): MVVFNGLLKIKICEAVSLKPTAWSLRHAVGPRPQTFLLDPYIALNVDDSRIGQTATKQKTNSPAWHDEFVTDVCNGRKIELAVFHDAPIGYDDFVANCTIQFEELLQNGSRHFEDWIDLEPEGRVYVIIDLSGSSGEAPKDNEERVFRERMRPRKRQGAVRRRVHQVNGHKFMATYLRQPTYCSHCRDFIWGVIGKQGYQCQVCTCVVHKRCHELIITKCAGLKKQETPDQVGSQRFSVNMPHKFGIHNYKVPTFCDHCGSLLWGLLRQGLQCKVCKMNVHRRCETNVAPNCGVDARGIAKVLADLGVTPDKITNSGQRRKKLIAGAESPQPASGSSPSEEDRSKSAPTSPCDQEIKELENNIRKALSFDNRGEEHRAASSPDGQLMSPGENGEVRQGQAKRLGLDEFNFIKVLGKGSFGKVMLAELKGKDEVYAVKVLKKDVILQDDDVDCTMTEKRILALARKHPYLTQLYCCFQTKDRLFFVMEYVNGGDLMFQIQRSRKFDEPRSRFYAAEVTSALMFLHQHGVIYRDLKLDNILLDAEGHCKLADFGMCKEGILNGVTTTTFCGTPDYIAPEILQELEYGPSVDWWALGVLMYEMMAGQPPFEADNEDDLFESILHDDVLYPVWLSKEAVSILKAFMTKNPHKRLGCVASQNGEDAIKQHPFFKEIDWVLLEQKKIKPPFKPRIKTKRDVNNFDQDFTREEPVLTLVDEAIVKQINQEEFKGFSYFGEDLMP

[1] = tested on: cyclin dependent kinase 2 (Cdk2); conditions: at 5 ng/ml
[2] = tested on: murine leukemias and solid tumors

In the case of `CCCCCCCC(=O)O[C@H]1/C(=C/C(=O)OC)C[C@H]2C[C@H](CO)OC(=O)C[C@H](O)CC3CCC[C@H](C[C@@H]4CCO[C@H](/C=C/C(C)(C)[C@]1(O)O2)O4)O3` [Analog 1], the “potency relative to bryostatin-1” value (PKC) is given as “about 100 times” and the Ki (PKC; read-out: PKC Affin) is given as 0.25 nM.
In the case of `CCCCCC1CC1CC1CC1CCCCCCCC(=O)O` (stereo not drawn) [DCP-LA, 2-[(2-pentylcyclopropyl)methyl]cyclopropaneoctanoic acid], the “concentration of maximal effect on PKC activation” value (PKCC) is given as 100 nM.
In the case of Gnidimacrin, the “inhibition of Cdk2” value [1] is listed as 100%, the “concentrations of potent antitumor activity” value [2] is listed as 0.1 to 1 nM and the “concentration at which it acts as PKC activator” value (PKC in K562 cells) is listed as “≈ 3 nM”.
